Assay: Recovery rate of zinc bacitracin in various feeds on storage at ambient temperature
Format: physicochemical
Details: initial 1,000 ppm = 100%
Description: Stabilization of the active substance zinc bacitracin is achieved with the process according to the invention.

**Q.** Which “Recovery rate of zinc bacitracin (ZBA) in %” value (from here on “Recovery rate … in %”) (meal feed 2.16 mineral supplement, 1.5 weeks) does the source give for zinc bacitracin [Untreated control] here?
**A.** 94.6%

**Q.** And the “Recovery rate … in %” value (meal feed 2.16 mineral supplement, 4 weeks)?
**A.** 91.2%

**Q.** What about the “Recovery rate … in %” value (meal feed 2.16 mineral supplement, 6 weeks) of the same substance?
**A.** 68.5%

**Q.** And the “Recovery rate … in %” value (meal feed 2.16 mineral supplement, 8 weeks)?
**A.** 73.7%

**Q.** And the “Recovery rate … in %” value (meal feed 2.6 complete feed for fattening pigs, 1.5 weeks)?
**A.** 116.4%

**Q.** What about the “Recovery rate … in %” value (meal feed 2.6 complete feed for fattening pigs, 4 weeks) of the same substance?
**A.** 107.6%

**Q.** And the “Recovery rate … in %” value (meal feed 2.6 complete feed for fattening pigs, 6 weeks)?
**A.** 93.1%

**Q.** What about the “Recovery rate … in %” value (meal feed 2.6 complete feed for fattening pigs, 8 weeks) of the same substance?
**A.** 83.3%

**Q.** And the “Recovery rate … in %” value (meal feed 7.4 complete feed for fattening chicks, 1.5 weeks)?
**A.** 89.8%

**Q.** What about the “Recovery rate … in %” value (meal feed 7.4 complete feed for fattening chicks, 4 weeks) of the same substance?
**A.** 82.9%

**Q.** What about the “Recovery rate … in %” value (meal feed 7.4 complete feed for fattening chicks, 6 weeks) of the same substance?
**A.** 66.2%

**Q.** What about the “Recovery rate … in %” value (meal feed 7.4 complete feed for fattening chicks, 8 weeks) of the same substance?
**A.** 51.9%

**Q.** What about the “Recovery rate … in %” value (meal feed 7.7 complete feed for laying hens, 1.5 weeks) of the same substance?
**A.** 96.5%

**Q.** What about the “Recovery rate … in %” value (meal feed 7.7 complete feed for laying hens, 4 weeks) of the same substance?
**A.** 98.8%

**Q.** What about the “Recovery rate … in %” value (meal feed 7.7 complete feed for laying hens, 6 weeks) of the same substance?
**A.** 86.4%

**Q.** What about the “Recovery rate … in %” value (meal feed 7.7 complete feed for laying hens, 8 weeks) of the same substance?
**A.** 80.4%

**Q.** And the “Recovery rate … in %” value (pellet feed 2.6 complete feed for fattening pigs, 1.5 weeks)?
**A.** 90.5%

**Q.** And the “Recovery rate … in %” value (pellet feed 2.6 complete feed for fattening pigs, 4 weeks)?
**A.** 75.7%

**Q.** What about the “Recovery rate … in %” value (pellet feed 2.6 complete feed for fattening pigs, 6 weeks) of the same substance?
**A.** 48.8%

**Q.** What about the “Recovery rate … in %” value (pellet feed 2.6 complete feed for fattening pigs, 8 weeks) of the same substance?
**A.** 40.8%

**Q.** And the “Recovery rate … in %” value (pellet feed 7.4 complete feed for fattening chicks, 1.5 weeks)?
**A.** 67.5%

**Q.** What about the “Recovery rate … in %” value (pellet feed 7.4 complete feed for fattening chicks, 4 weeks) of the same substance?
**A.** 40.2%

**Q.** What about the “Recovery rate … in %” value (pellet feed 7.4 complete feed for fattening chicks, 6 weeks) of the same substance?
**A.** 24.9%

**Q.** What about the “Recovery rate … in %” value (pellet feed 7.4 complete feed for fattening chicks, 8 weeks) of the same substance?
**A.** 21.4%

**Q.** What about the “Recovery rate … in %” value (pellet feed 7.7 complete feed for laying hens, 1.5 weeks) of the same substance?
**A.** 81.5%

**Q.** And the “Recovery rate … in %” value (pellet feed 7.7 complete feed for laying hens, 4 weeks)?
**A.** 65.8%

**Q.** And the “Recovery rate … in %” value (pellet feed 7.7 complete feed for laying hens, 6 weeks)?
**A.** 51.1%

**Q.** And the “Recovery rate … in %” value (pellet feed 7.7 complete feed for laying hens, 8 weeks)?
**A.** 42.4%
